Test results from US7582645B2, “Pyrimidine derivatives for treatment of hyperproliferative disorders” (Bayer Pharmaceuticals Corporation, priority 2003, dated 2009).

test system: HCT116 cells; assay: HCT116 cytotoxic activity assay (Alamar Blue, 72 h); type: cell-based; settings: Homo sapiens, HCT-116, 72 h compound exposure, greater than 500 nM but less than or equal to 2 μM
Procedure: Representative compounds of this invention were tested for cytotoxicity using the above-described assay procedure with the following results: […]

Row | Compound | IC50 [µM]
1 | N#Cc1cc(Oc2ccc(Nc3cc(-c4cc(F)cc(F)c4)nc(N)n3)cc2)ccn1 [Example 276, 4-(4-{[2-amino-6-(3,5-difluorophenyl)pyrimidin-4-yl]amino}phenoxy)pyridine-2-carbonitrile] | 0.5 to 2
2 | NC(=O)c1cc(Oc2ccc(Nc3cc(-c4cc(F)cc(F)c4)nc(N)n3)cc2)ccn1 [Example 279, 4-(4-{[2-amino-6-(3,5-difluorophenyl)pyrimidin-4-yl]amino}phenoxy)pyridine-2-carboxamide] | 0.5 to 2
3 | NC(=O)c1cc(Oc2cccc(Nc3cc(-c4cccc(OCc5ccccc5)c4)nc(N)n3)c2)ccn1 [Example 281, 4-[3-({2-amino-6-[3-(benzyloxy)phenyl]pyrimidin-4-yl}amino)phenoxy]pyridine-2-carboxamide] | 0.5 to 2
4 | NC(=O)c1cc(Oc2cccc(Nc3cc(-c4cccc(N)c4)nc(N)n3)c2)ccn1 [Example 283, 4-(3-{[2-amino-6-(3-aminophenyl)pyrimidin-4-yl]amino}phenoxy) pyridine-2-carboxamide] | 0.5 to 2
5 | COc1ccc(-c2cc(Nc3cccc(Oc4ccnc(C(N)=O)c4)c3)nc(N)n2)cn1 [Example 284, 4-(3-{[2-amino-6-(6-methoxypyridin-3-yl)pyrimidin-4-yl]amino}phenoxy) pyridine-2-carboxamide] | 0.5 to 2
6 | NC(=O)c1cc(Oc2cccc(Nc3cc(-c4ccccc4F)nc(N)n3)c2)ccn1 [Example 286, 4-(3-{[2-amino-6-(2-fluorophenyl)pyrimidin-4-yl]amino}phenoxy) pyridine-2-carboxamide] | 0.5 to 2

same assay, conditions: Homo sapiens, HCT-116, 72 h compound exposure, greater than 2 μM

Row | Compound | IC50 [µM]
7 | NC(=O)c1cc(Oc2ccc(Nc3cc(-c4cccc(OC(F)(F)F)c4)nc(N)n3)cc2)ccn1 [Example 277, 4-[4-({2-amino-6-[3-(trifluoromethoxy)phenyl]pyrimidin-4-yl}amino)phenoxy]pyridine-2-carboxamide] | > 2
8 | NC(=O)c1cc(Oc2cccc(Nc3cc(-c4ccc(-c5ccccc5)cc4)nc(N)n3)c2)ccn1 [Example 280, 4-{3-[(2-amino-6-biphenyl-4-ylpyrimidin-4-yl)amino]phenoxy} pyridine-2-carboxamide] | > 2
9 | NC(=O)c1cc(Oc2cccc(Nc3cc(-c4cccc(F)c4)nc(N)n3)c2)ccn1 [Example 285, 4-(3-{[2-amino-6-(3-fluorophenyl)pyrimidin-4-yl]amino}phenoxy) pyridine-2-carboxamide] | > 2
10 | CN(C)c1ccc(-c2cc(Nc3cccc(Oc4ccnc(C(N)=O)c4)c3)nc(N)n2)cc1 [Example 287, 4-[3-({2-amino-6-[4-(dimethylamino)phenyl]pyrimidin-4-yl}amino)phenoxy]pyridine-2-carboxamide] | > 2
11 | COc1ccc(C(C)C)cc1-c1cc(Nc2cccc(Oc3ccnc(C(N)=O)c3)c2)nc(N)n1 [Example 289, 4-(3-{[2-amino-6-(5-isopropyl-2-methoxyphenyl)pyrimidin-4-yl]amino}phenoxy)pyridine-2-carboxamide] | > 2

same assay, conditions: Homo sapiens, HCT-116, 72 h compound exposure, less than or equal to 500 nM

Row | Compound | IC50 [µM]
12 | N#Cc1cc(Oc2ccc(Nc3cc(-c4ccccc4OC(F)(F)F)nc(N)n3)cc2)ccn1 [Example 275, 4-[4-({2-amino-6-[2-(trifluoromethoxy)phenyl]pyrimidin-4-yl}amino)phenoxy]pyridine-2-carbonitrile] | ≤ 0.5
13 | NC(=O)c1cc(Oc2ccc(Nc3cc(-c4ccccc4OC(F)(F)F)nc(N)n3)cc2)ccn1 [Example 278, 4-[4-({2-amino-6-[2-(trifluoromethoxy)phenyl]pyrimidin-4-yl}amino)phenoxy]pyridine-2-carboxamide] | ≤ 0.5
14 | Cc1cc(Oc2ccc(Nc3cc(-c4ccc(F)cc4)nc(N)n3)cc2)ccn1 [Example 282, 6-(4-fluorophenyl)-N4*-{4-[(2-methylpyridin-4-yl)oxy]phenyl} pyrimidine-2,4-diamine] | ≤ 0.5
15 | CCc1cccc(-c2cc(Nc3cccc(Oc4ccnc(C(N)=O)c4)c3)nc(N)n2)c1 [Example 288, 4-(3-{[2-amino-6-(3-ethylphenyl)pyrimidin-4-yl]amino}phenoxy) pyridine-2-carboxamide] | ≤ 0.5
